Experiments:
Assay in all cases: relative viability (nuclei count vs DMSO), 5 days (fraction); higher = more cells survive
[1] = compound: CC1CC(=O)N(C2=CN=C(N=C2N1C3CCCC3)NC4=C(C=C(C=C4)C(=O)NC5CCN(CC5)C)OC)C [NPK76-II-72-1] + Nc1nc2[nH]cc(CCc3ccc(C(=O)N[C@@H](CCC(=O)O)C(=O)O)cc3)c2c(=O)[nH]1 [Pemetrexed] (partner 0.2 µM)
Procedure, shortened: (§1)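 Lung cancer cell lines were pin-tool dosed in 1536-well plates on the day after seeding, with either a lone drug or a fixed anchor-drug dose plus five library-drug doses (not always all listed) in √10 steps. Nuclei were counted on 4× images after 5 days. Relative viability is the ratio of treated-well to vehicle-well nuclei counts, with each value a median of duplicate plates.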

BI-2536 + OSI-027 = compound: CC[C@@H]1C(=O)N(C)c2cnc(Nc3ccc(C(=O)NC4CCN(C)CC4)cc3OC)nc2N1C1CCCC1 [BI-2536] + COc1cccc2cc(-c3nc([C@H]4CC[C@H](C(=O)O)CC4)n4ncnc(N)c34)[nH]c12 [OSI-027] (partner 0.5 µM)
Procedure, shortened: as §1

BI-2536 + Decitabine = compound: CC[C@@H]1C(=O)N(C)c2cnc(Nc3ccc(C(=O)NC4CCN(C)CC4)cc3OC)nc2N1C1CCCC1 [BI-2536] + Nc1ncn([C@H]2C[C@H](O)[C@@H](CO)O2)c(=O)n1 [Decitabine] (partner 2 µM)
Procedure, shortened: as §1

BI-2536 + Olaparib = compound: CC[C@@H]1C(=O)N(C)c2cnc(Nc3ccc(C(=O)NC4CCN(C)CC4)cc3OC)nc2N1C1CCCC1 [BI-2536] + O=C(c1cc(Cc2n[nH]c(=O)c3ccccc23)ccc1F)N1CCN(C(=O)C2CC2)CC1 [Olaparib] (partner 8 µM)
Procedure, shortened: as §1

Row | Cell Line | relative viability ([1]; first compound 0.01 µM) | relative viability ([1]; first compound 0.03162 µM) | relative viability ([1]; first compound 0.1 µM) | relative viability ([1]; first compound 0.3162 µM) | relative viability ([1]; first compound 1 µM) | relative viability (BI-2536 + OSI-027; first compound 0.01 µM) | relative viability (BI-2536 + OSI-027; first compound 0.03162 µM) | relative viability (BI-2536 + OSI-027; first compound 0.1 µM) | relative viability (BI-2536 + OSI-027; first compound 0.3162 µM) | relative viability (BI-2536 + OSI-027; first compound 1 µM) | relative viability (BI-2536 + Decitabine; first compound 0.01 µM) | relative viability (BI-2536 + Decitabine; first compound 0.03162 µM) | relative viability (BI-2536 + Decitabine; first compound 0.1 µM) | relative viability (BI-2536 + Decitabine; first compound 0.3162 µM) | relative viability (BI-2536 + Decitabine; first compound 1 µM) | relative viability (BI-2536 + Olaparib; first compound 0.01 µM) | relative viability (BI-2536 + Olaparib; first compound 0.03162 µM) | relative viability (BI-2536 + Olaparib; first compound 0.1 µM) | relative viability (BI-2536 + Olaparib; first compound 0.3162 µM) | relative viability (BI-2536 + Olaparib; first compound 1 µM)
1 | NCI-H1437 | 0.319 | 0.305 | 0.307 | 0.305 | 0.352 | 0.857 | 0.925 | 0.398 | 0.172 | 0.149 | 0.572 | 0.573 | 0.335 | 0.229 | 0.197 | 0.6 | 0.494 | 0.339 | 0.23 | 0.247
2 | COR-L23 | 0.207 | 0.19 | 0.195 | 0.193 | 0.211 | 0.864 | 0.484 | 0.216 | 0.107 | 0.139 | 0.424 | 0.359 | 0.149 | 0.104 | 0.13 | 0.384 | 0.288 | 0.156 | 0.111 | 0.111
3 | ABC-1 |  |  |  |  |  | 0.419 | 0.362 | 0.237 | 0.236 | 0.19 | 1.04 | 0.989 | 0.385 | 0.397 | 0.467 | 0.657 | 0.876 | 0.423 | 0.406 | 0.299
4 | SW 900 | 0.445 | 0.49 | 0.493 | 0.463 | 0.493 | 0.6 | 0.427 | 0.456 | 0.129 | 0.132 | 0.433 | 0.458 | 0.384 | 0.28 | 0.203 | 0.804 | 1.05 | 0.691 | 0.215 | 0.153
5 | NCI-H838 | 0.277 | 0.251 | 0.263 | 0.237 | 0.245 | 0.386 | 0.444 | 0.393 | 0.146 | 0.149 | 0.445 | 0.413 | 0.185 | 0.151 | 0.142 | 0.731 | 0.638 | 0.368 | 0.0986 | 0.0726
6 | NCI-H1648 | 0.633 | 0.648 | 0.702 | 0.739 | 0.732 | 0.258 | 0.25 | 0.233 | 0.203 | 0.24 | 0.536 | 0.451 | 0.447 | 0.195 | 0.29 | 0.794 | 0.887 | 0.545 | 0.23 | 0.275
7 | A549 |  |  |  |  |  |  |  |  |  |  | 0.26 | 0.315 | 0.246 | 0.0414 | 0.0226 | 0.267 | 0.444 | 0.125 | 0.0214 | 0.0368
8 | A-427 | 0.903 | 0.991 | 0.978 | 0.965 | 1.01 | 0.464 | 0.471 | 0.251 | 0.12 | 0.119 | 0.555 | 0.539 | 0.469 | 0.204 | 0.185 | 0.727 | 0.593 | 0.385 | 0.191 | 0.176
9 | NCI-H1792 |  | 0.961 | 0.627 | 0.636 | 1.06 | 0.818 | 0.758 | 0.678 | 0.591 | 0.395 | 0.587 | 0.589 | 0.386 | 0.0865 | 0.0535 | 0.543 | 0.374 | 0.316 | 0.0436 | 0.0344
10 | LCLC-97TM1 | 0.178 | 0.196 | 0.164 | 0.158 | 0.155 | 0.575 | 0.538 | 0.434 | 0.138 | 0.167 | 0.228 | 0.277 | 0.163 | 0.0912 | 0.0986 | 0.463 | 0.292 | 0.233 | 0.0868 | 0.0916
11 | NCI-H1703 |  |  |  |  |  |  |  |  |  |  |  |  |  |  |  | 0.426 | 0.315 | 0.209 | 0.102 | 0.111
12 | LCLC-103H |  | 0.441 | 0.425 | 0.472 | 0.442 | 0.462 | 0.466 | 0.485 | 0.215 | 0.155 | 0.792 | 0.749 | 0.652 | 0.322 | 0.333 | 0.742 | 0.86 | 0.77 | 0.358 | 0.216
13 | PC-3 [JPC-3] | 0.963 |  | 1.06 | 1.18 | 1.1 | 0.828 | 0.581 | 0.333 | 0.179 | 0.16 | 0.775 | 0.752 | 0.757 | 0.362 | 0.408 | 1.22 | 0.896 | 0.582 | 0.327 | 0.369
14 | BEN | 0.794 | 0.683 | 0.739 | 0.755 | 0.934 | 0.312 | 0.261 | 0.272 | 0.233 | 0.169 | 0.699 | 0.72 | 0.429 | 0.366 | 0.421 | 1.09 | 0.984 | 0.779 | 0.382 | 0.364
15 | Calu-6 |  |  |  |  |  |  |  |  |  |  |  |  |  |  |  | 0.533 | 0.524 | 0.243 | 0.0982 | 0.0892
16 | EBC-1 |  |  |  |  |  |  |  |  |  |  |  |  |  |  |  | 0.616 | 0.612 | 0.377 | 0.139 | 0.133
17 | NCI-H1299 |  |  |  |  |  |  |  |  |  |  |  |  |  |  |  | 1.01 | 0.907 | 0.828 | 0.237 | 0.221
18 | NCI-H2228 | 0.307 | 0.359 | 0.33 | 0.339 | 0.343 | 0.576 | 0.437 | 0.141 | 0.124 | 0.26 |  |  |  |  |  | 0.596 | 0.553 | 0.141 | 0.118 | 0.123
19 | IA-LM |  |  |  |  |  |  |  |  |  |  |  |  |  |  |  | 0.763 | 0.752 | 0.402 | 0.101 | 0.102
20 | NCI-H727 |  |  |  |  |  | 0.597 | 0.471 | 0.499 | 0.334 | 0.338 | 0.819 | 0.841 | 0.849 | 0.477 | 0.372 | 0.589 | 0.765 | 0.643 | 0.461 | 0.576
21 | CAL-12T | 0.927 | 1.1 | 1.14 | 0.943 | 1.5 | 0.646 | 0.531 | 0.188 | 0.144 | 0.191 |  |  |  |  |  | 0.682 | 0.596 | 0.493 | 0.167 | 0.19
